Laboratory results published in PubChem BioAssay AID1896 (NMMLSC, 2009).
Active and inactive are the calls of the source. No rule for the calls is given here.

Biological target: Mitogen-activated protein kinase kinase kinase 3 (Homo sapiens) (UniProt Q99759)
Experiment: inhibitors of MEK5 binding to MEKK3, dose response, biochemical, bead multiplex flow cytometry, wildtype (AID 1896)
Settings: bead-based multiplex flow cytometry, MEK5-MEKK3 PB1 binding

Mitogen-activated protein kinase kinase kinase 3 (Homo sapiens), sequence (Q99759 whole entry, looked up): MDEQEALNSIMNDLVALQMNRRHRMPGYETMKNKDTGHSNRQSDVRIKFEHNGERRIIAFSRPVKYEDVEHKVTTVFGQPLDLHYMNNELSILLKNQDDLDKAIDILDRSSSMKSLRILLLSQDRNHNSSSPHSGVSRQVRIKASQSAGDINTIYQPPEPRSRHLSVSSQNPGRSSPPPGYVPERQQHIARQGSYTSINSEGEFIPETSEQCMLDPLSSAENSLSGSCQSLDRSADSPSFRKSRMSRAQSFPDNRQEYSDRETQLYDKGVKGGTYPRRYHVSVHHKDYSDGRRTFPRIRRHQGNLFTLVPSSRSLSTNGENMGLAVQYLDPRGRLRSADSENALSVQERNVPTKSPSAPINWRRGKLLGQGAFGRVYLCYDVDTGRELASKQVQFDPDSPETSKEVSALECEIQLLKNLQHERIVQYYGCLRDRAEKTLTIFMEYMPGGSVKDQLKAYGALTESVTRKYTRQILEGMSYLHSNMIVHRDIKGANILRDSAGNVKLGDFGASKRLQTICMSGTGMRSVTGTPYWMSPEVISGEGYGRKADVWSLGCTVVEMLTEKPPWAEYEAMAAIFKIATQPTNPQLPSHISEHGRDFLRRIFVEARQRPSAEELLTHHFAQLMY

| Compound | EC50 |
| --- | --- |
| CCN(CC)CCOC(=O)c1ccc(N/C=C(/C#N)c2nc(-c3ccc(OC)c(OC)c3)cs2)cc1 | 2.52 µM |
| C#CCOCCOCCOCCNc1nc(N2CCN(C(=O)[C@H]([C@@H](C)CC)n3cc([C@@H](N)CC(C)C)nn3)CC2)nc(N2CCN(C(=O)[C@H](Cc3cc4ccccc4[nH]3)n3cc([C@@H](N)Cc4ccc(O)cc4)nn3)CC2)n1 | > 30 µM (inactive) |
| CNc1nc(-c2c[nH]c3ccccc23)cs1 | 8.73 µM |
| C#CCOCCOCCOCCNc1nc(N2CCN(C(=O)[C@H](Cc3cc4ccccc4[nH]3)n3cc([C@@H](N)C(C)CC)nn3)CC2)nc(N2CCN(C(=O)[C@H](CCCCN)n3cc([C@@H](N)CC(C)C)nn3)CC2)n1 (some centres not stated) | > 30 µM (inactive) |
| NC(=NCCCCCCN=C(N)/N=C(\N)Nc1ccc(Cl)cc1)/N=C(\N)Nc1ccc(Cl)cc1 | > 30 µM (inactive) |
| O=C(NNc1c2ccccc2nc2ccccc12)c1cc2ccccc2cc1O | > 30 µM (inactive) |
| C#CCOCCOCCOCCNc1nc(N2CCN(C(=O)[C@H]([C@@H](C)CC)n3cc([C@@H](N)Cc4ccc(O)cc4)nn3)CC2)nc(N2CCN(C(=O)[C@H](Cc3cc4ccccc4[nH]3)n3cc([C@@H](N)C(C)CC)nn3)CC2)n1 (some centres not stated) | > 30 µM (inactive) |
| CCOC(=O)C1=C(c2ccccc2)NC(N)=NC1c1ccc(OCc2ccc(C(=O)OC)cc2)cc1 (configuration not stated) | > 30 µM (inactive) |
| C#CCOCCOCCOCCNc1nc(N2CCN(C(=O)[C@H](Cc3ccc(O)cc3)n3cc([C@@H](N)C(C)CC)nn3)CC2)nc(N2CCN(C(=O)[C@H](Cc3cc4ccccc4[nH]3)n3cc([C@@H](N)Cc4ccc(O)cc4)nn3)CC2)n1 (some centres not stated) | > 30 µM (inactive) |
| COc1ccc(Cn2c(SCc3ccc(C)cc3)nc3cc(OC)c(OC)cc3c2=N)cc1Cl | > 30 µM (inactive) |
| CCn1cc(C(=O)O)c(=O)c2cc(F)c(N3CCN(C(=S)NC(=O)c4ccc(Br)cc4)CC3)cc21 | > 30 µM (inactive) |
| CCCCn1c(O)c(/C=C/C=C/C=Nc2ccccc2)sc1=S | 1.29 µM |
| CC(=O)c1c(C)[nH]c(C(=O)NC2=NCCS2)c1C | > 30 µM (inactive) |
| CCN1/C(=C/c2ccc3cc(C)ccc3[n+]2CC)Sc2cc(C)c(C)cc21 | 5.79 µM |
| COc1ccc(C2NCCc3c2[nH]c2ccccc32)cc1CN1CCc2cc(OC)c(OC)cc2C1C (configuration not stated) | > 30 µM (inactive) |
| Nc1ccc(N)c(C(=O)O)c1 | 3.06 µM |
| CCN(CC)CCOC(=O)c1ccc(N/C=C(/C#N)c2nc(-c3ccc(OC)cc3)cs2)cc1 | > 30 µM (inactive) |
| Cc1ccc(-n2cc(CNCCCn3ccnc3C)c(-c3ccc(F)cc3)n2)cc1 | > 30 µM (inactive) |
| CN(C)c1ccc(NC(=O)CN2CCC(O)(c3ccccc3)CC2)cc1 | > 30 µM (inactive) |
| COc1ccc(/C=N/Nc2cc(C)nc3ccc(Br)cc23)cc1 | > 30 µM (inactive) |
| COCc1c(C#N)c(NCCc2ccccc2)nc(C)c1[N+](=O)[O-] | > 30 µM (inactive) |
| CN1CCN(CC(O)COc2ccc(C34CC5CC(CC(C5)C3)C4)cc2)CC1 (configuration not stated) | > 30 µM (inactive) |
| COc1ccc2[nH]c3c(C)c4ccncc4c(C)c3c2c1 | > 30 µM (inactive) |
| CC[C@@H](C)[C@H](CNC)NC[C@@H](Cc1cccc2ccccc12)NCCc1cccc(C(F)(F)F)c1 | > 30 µM (inactive) |
| COc1ccc(NC(=O)N(Cc2cc3cc(C)ccc3[nH]c2=O)CC2CCCO2)cc1 (configuration not stated) | > 30 µM (inactive) |
| CCN1/C(=C/c2ccc3cc(C)cc(C)c3[n+]2CC)Sc2cc(C)ccc21 | 10.6 µM |
| CCN1CCN(CCNC(=O)c2ccc(/C=C3/Sc4ccccc4N(Cc4cccc(Cl)c4)C3=O)cc2)CC1 | > 30 µM (inactive) |

| Compound | EC50 |
| --- | --- |
| CCN1C(c2ccccc2)=C(c2ccccc2)S/C1=C\C=C1/SC(=S)N(C)C1=O | 3.93 µM |
| C#CCOCCOCCOCCNc1nc(N2CCN(C(=O)[C@H](Cc3cc4ccccc4[nH]3)n3cc([C@@H](N)C(C)CC)nn3)CC2)nc(N2CCN(C(=O)[C@H](Cc3cc4ccccc4[nH]3)n3cc([C@@H](N)Cc4ccc(O)cc4)nn3)CC2)n1 (some centres not stated) | > 30 µM (inactive) |
| COC(=O)c1c(C)oc(C)c1S(=O)(=O)N(Cc1ccccc1)C(C)C | > 30 µM (inactive) |
| Cc1ccc(-c2c[n+](CC(=O)Nc3nc(-c4ccc(F)cc4)cs3)c3n2CCC3)cc1 | > 30 µM (inactive) |
| CCOC(=O)C(C(=O)OCC)c1cc(Br)c2noc3c2c1C(=O)c1ccccc1-3 | > 30 µM (inactive) |
| CCc1ccc(Nc2n[n+](-c3ccccc3)c(-c3ccc(OCc4ccccc4)cc3)s2)cc1 | > 30 µM (inactive) |
| CCN(CC)CCOC(=O)c1ccc(N/C=C(/C#N)c2nc(-c3cc4ccccc4oc3=O)cs2)cc1 | 3.81 µM |
| CCCCCCCCCCOC(=O)Cn1c(COc2cccc(C)c2)[n+](C)c2ccccc21 | > 30 µM (inactive) |
| CCCCCc1cc(=O)oc2c(C(CCN3CCCCC3)c3ccc(OC)cc3)c(OC)cc(OC)c12 (configuration not stated) | > 30 µM (inactive) |
| S=c1[nH]nc(-c2ccc(Cl)cc2)n1-c1ccc2c(c1)OCCO2 | > 30 µM (inactive) |
| CCCSc1ncnc2sc(C)c(C)c12 | > 30 µM (inactive) |
| S=C(Nc1cccc(Cl)c1)N(CCCN1CCCC1)Cc1cccn1Cc1ccc(Cl)cc1 | > 30 µM (inactive) |
| C#CCOCCOCCOCCNc1nc(N2CCN(C(=O)C(Cc3ccc(O)cc3)n3cc(C(N)CC(C)C)nn3)CC2)nc(N2CCN(C(=O)C(Cc3cc4ccccc4[nH]3)n3cc(C(N)Cc4ccc(O)cc4)nn3)CC2)n1 (configuration not stated) | > 30 µM (inactive) |
| C#CCOCCOCCOCCNc1nc(N2CCN(C(=O)[C@H]([C@@H](C)CC)n3cc([C@@H](N)Cc4ccc(O)cc4)nn3)CC2)nc(N2CCN(C(=O)[C@H](CCCCN)n3cc([C@@H](N)CC(C)C)nn3)CC2)n1 | > 30 µM (inactive) |
| CCN(CC)CCOc1ccc2c(c1)C(=NNC(=O)c1ccccn1)c1cc(OCCN(CC)CC)ccc1-2 | > 30 µM (inactive) |
| CSc1cccc(NC(=S)N(CCCN2CCCC2)Cc2cccn2Cc2ccc(Cl)cc2)c1 | > 30 µM (inactive) |
| CCNc1ccc2noc3c2c1C(=O)c1ccccc1-3 | 4.55 µM |
| CCOC(=O)c1c(C)n(-c2ccc(C)cc2)c2ccc(OCC(O)CN3CCN(C)CC3)cc12 (configuration not stated) | > 30 µM (inactive) |
| Nc1ccc2nc(-c3ccc(-c4nc5ccc(N)cc5[nH]4)cc3)[nH]c2c1 | > 30 µM (inactive) |
| CN(C)CCCn1c(SCC(=O)Nc2nc(-c3cccc(Br)c3)cs2)nc2ccccc2c1=O | > 30 µM (inactive) |
| O=C(CCCC(=O)N(CC(=O)NC1CCCC1)C1CCCC1)Nc1ccccn1 | > 30 µM (inactive) |
| C#CCOCCOCCOCCNc1nc(N2CCN(C(=O)[C@H](CCC(=O)O)n3cc(C(N)CO)nn3)CC2)nc(N2CCN(C(=O)[C@H](Cc3cc4ccccc4[nH]3)n3cc(C(N)[C@H](C)CC)nn3)CC2)n1 (some centres not stated) | > 30 µM (inactive) |
| CCCN1C(=O)/C(=C\C=C2/Sc3ccccc3N2CC)SC1=S | > 30 µM (inactive) |
| C#CCOCCOCCOCCNc1nc(N2CCN(C(=O)[C@H](Cc3ccc(O)cc3)n3cc([C@@H](N)CC(C)C)nn3)CC2)nc(N2CCN(C(=O)[C@H](Cc3cc4ccccc4[nH]3)n3cc([C@@H](N)CC(C)C)nn3)CC2)n1 | > 30 µM (inactive) |
| CCCN(CCC)CCNC(=O)c1cc2c(-c3ccc(Cl)cc3)nn(C)c2s1 | > 30 µM (inactive) |
| CCN1/C(=C/C=C/C=C/C=C/c2sc3ccccc3[n+]2CC)Sc2ccccc21 | > 30 µM (inactive) |

Same assay, conditions: bead-based multiplex flow cytometry, MEK5-MEKK3 PB1 binding; measured here: Ki from EC50

| Compound | Ki [µM] |
| --- | --- |
| CCN(CC)CCOC(=O)c1ccc(N/C=C(/C#N)c2nc(-c3ccc(OC)c(OC)c3)cs2)cc1 | 2.15 |
| CNc1nc(-c2c[nH]c3ccccc23)cs1 | 7.47 |
| CCCCn1c(O)c(/C=C/C=C/C=Nc2ccccc2)sc1=S | 1.1 |
| CCN1/C(=C/c2ccc3cc(C)ccc3[n+]2CC)Sc2cc(C)c(C)cc21 | 4.96 |
| Nc1ccc(N)c(C(=O)O)c1 | 2.62 |
| CCN1/C(=C/c2ccc3cc(C)cc(C)c3[n+]2CC)Sc2cc(C)ccc21 | 9.04 |
| CCN1C(c2ccccc2)=C(c2ccccc2)S/C1=C\C=C1/SC(=S)N(C)C1=O | 3.36 |
| CCN(CC)CCOC(=O)c1ccc(N/C=C(/C#N)c2nc(-c3cc4ccccc4oc3=O)cs2)cc1 | 3.26 |
| CCNc1ccc2noc3c2c1C(=O)c1ccccc1-3 | 3.89 |
